Results as given in patent US20090082400A1, “SOLUBLE PYRONE ANALOGS METHODS AND COMPOSITIONS” (priority 2007, published 2009).
Values joined by “and” are separate entries in the source; they are usually repeats but may differ in a detail not shown here. Identical values can stand only once. “Also recorded” adds a separate entry of the source. Blank lines part the entries; values can stand above or below the molecule they belong to.

Tests used:
[1] = Sulfobutylether-7-β-cyclodextrin-quercetin aqueous composition: concentration and storage stability; assay type: physicochemical; conditions: quercetin at 10 mg/ml in water with sulfobutylether-7-β-cyclodextrin
Description: The flask is placed in an ice bath. […] Into the flask, 12 ml of 1 N sodium hydroxide is added over about 5 to 10 minutes. […] Into the flask is then added 10.5 ml of hydrochloric acid over 5 to 10 minutes at a slow enough rate to avoid precipitation. During the addition of the sodium hydroxide and the hydrochloric acid, the temperature is maintained at less than 20° C. DI water is then added to give total volume of 100 ml.

[2] = in vivo; cited from earlier work
[3] = Zheng, et al. J. Pharm. Sci. 94(5), 2005; cited from earlier work
[4] = Fisetin-sulfobutylether-7-β-cyclodextrin solution: concentration and precipitation; assay type: physicochemical; conditions: approximately 1:2.5 molar ratio of fisetin to Captisol; pH 7.8-7.9
Description: Captisol™ (17.9 g) is dissolved in 55 ml of distilled (or deionized) water. Fisetin (anhydrous) (965 mg) is then added to the above solution. The mixture is stirred vigorously followed by sonication if necessary to break up any clumps so that a homogeneous suspension is obtained.
While stirring vigorously, a 1 N NaOH solution (12.0 ml) is added slowly and for the formation of the fisetin-Captisol inclusion complex. The resulting solution will be at about pH 12.5 and may have an orange-brown color. The solution is not kept long at this pH, and is quickly neutralized in the following step.
While stirring, add 1N HCl solution (9 ml) dropwise to attain pH to 7.8-7.9. The final solution may be light-yellow to light orange in color. In some cases, the pH can be brought to below pH 7.8. […] Add water to a final volume of 100 ml.
This solution will contain approximately a 1:2.5 molar ratio of fisetin to Captisol. This procedure is for preparing an approximately 9.47 mg/ml fisetin solution. In some cases, the solution can be further diluted to make a solution for injection or for oral administration, for example, by diluting with either 0.9% saline solution and/or with a solution containing dextrose.

[5] = system: rats; experiment: Blood glucose levels in rats co-administered tacrolimus and flavonoid-sulfobutylether-7-β-cyclodextrin; assay type: in vivo, rat
Description: One set of 5 rats is treated from day 1 to day 25 with inert vehicle 2 intraperitoneally and treated from day 11 to day 25 with inert vehicle 1 intraperitoneally. […] A third set 5 of rats is treated from day 1 to day 25 intraperitoneally with tacrolimus (Prograf®) at 0.5 mg/kg, and treated from day 11 to day 25 with sulfobutylether-7-β-cyclodextrin (Q-Captisol) at 100 mg/kg. A fourth set 5 of rats is treated from day 1 to day 25 intraperitoneally with tacrolimus (Prograft®) at 0.5 mg/kg, and treated from day 11 to day 25 with fisetin-sulfobutylether-7-β-cyclodextrin (Fisetin-Captisol) at 85 mg/kg. The blood glucose level in the rats was measured on days 1, 10, 15, 20, and 25.

[6] = Pharmacokinetic parameters of i.v. tacrolimus in the presence of Q-Captisol in male Lewis rats; assay type: in vivo; conditions: rat, whole blood, iv, tacrolimus 1 mg/kg i.v.; for AUC / Cmax / Vd / clearance / half-life: male, Lewis, 1 mg/kg
Description: Male Lewis rats (Charles River Laboratories; 8-9 weeks old; mean weights 282-285 gm) are randomly assigned to treatment groups by a computerized body weight stratification procedure. Quercetin-Sulfobutylether-7-β-cyclodextrin (Q-Captisol) is prepared as a dosing solution using Captisol (B-cyclodextrin-sulfobutyl ether sodium salt; CyDex Inc.) along with 1 molar equivalent of sodium hydroxide. Q-Captisol is administered intraperitoneally (i.p.) at doses of 0, 25, 150, or 300 mg/kg (N=9 rats/dose). Tacrolimus (1 mg/kg i.v.) is dosed at 0.2 ml/kg directly from Prograf 5 mg/ml clinical dosing solutions. […] Whole blood is collected in EDTA tubes from the retro-orbital sinus under 60:40 CO2:O2 anesthesia at 9 time periods using N=3 animals per time period: 5, 15, and 30 min; 1, 2, 3, 6, 8, and 24 hr after administration of tacrolimus. To avoid excessive blood loss from individual animals, 3 blood samples per rat are collected at specified time intervals, so the final samples for analysis contained N=3 blood samples per time period. Whole blood samples are froze on dry ice and stored frozen at −80° C. prior to analysis.
Thawed whole blood (200 μl) is transferred to a separate glass tube with 100 μl of ascomycin (Internal Standard: 100 ng/ml in 10% methanol) and 20 μl of 10% methanol. Samples are treated with 400 μl of 0.1 M zinc sulfate and then 100 μl of acetonitrile to precipitate proteins. Samples are vortexed, then centrifuged at 4000 rpm for 5 min. 500 μl of supernatant is transferred to a clean glass tube containing 1000 μl of water and vortexed thoroughly. Mixtures are loaded onto a 100 mg C18 cartridge (SPE column) preconditioned with 1 ml of methanol, followed by 1 ml of water. The cartridge is washed 2× with 1 ml water, followed by 100 μl methanol. Tacrolimus and Internal Standard are eluted with 500 μl of methanol into an HPLC vial containing 1000 μl of 10 mM ammonium acetate. Samples are vortexed, then centrifuged at 4000 rpm for 10 min. A 10 μl aliquot of the clarified supernatant is injected directly onto LC/MS/MS for analysis. Calibration standards are prepared in blank rat whole blood at 1, 2, 5, 5, 10, 25, 50, 62.5, and 75 ng/ml and processed as described for the samples from rats dosed with tacrolimus.
The tacrolimus concentrations in plasma are determined using validated assay methods via an LC/MS/MS analytical technique. Major pharmacokinetic parameters, including area under the concentration versus time curve from time zero to the time of last measurable concentration (AUCt), area under the concentration versus time curve from time zero to infinite time (AUCinf), maximum observed concentration (Cmax), time to reach maximum observed blood or plasma concentration (Tmax), apparent terminal elimination rate constant (Kcl), clearance (CL), and half-life (T1/2), are determined from the plasma concentration data. […] These changes are believed to be caused by drug re-distribution from non-targeted organs to systemic circulation.

[7] = Pharmacokinetic parameters of oral tacrolimus in the presence of Q-Captisol in healthy human volunteers; assay type: in vivo
Description: Tacrolimus-quercetin pharmacokinetic interactions are evaluated in N=15 healthy male subjects in an open-label, three-way crossover study of i.v. or oral quercetin-sulfobutylether-7-β-cyclodextrin (Q-Captisol) administered in combination with oral tacrolimus. Q-Captisol stock dosing solutions are prepared in aqueous Captisol (CyDex Inc.) using sodium hydroxide to facilitate dissolution. The final solution is adjusted to a final pH=7.5 to 8.0 using dilute sodium hydroxide or HCl. Stock solutions are aseptically filtered into a sterile IV bag and diluted to final volume with sterile saline. Q-Captisol oral dosing solutions are prepared by transferring the stock solution to a dosing cup and diluting to the final volume with deionized water. Oral tacrolimus is administered using commercially-available Prograf® capsules, with each capsule containing 1 mg tacrolimus and the excipient lactose.
In Period 1, all subjects received only a single dose of oral tacrolimus (1 mg).
In Period 2, all subjects received 3× daily oral doses of Q-Captisol on Days 12, 13, and 14. On Day 14, subjects received a single dose of oral tacrolimus (1 mg)
In Period 3, i.v. infusions of Q-Captisol are administered over 20 min via an indwelling cannula. Tacrolimus (1 mg) is administered orally 60 min after the start of the administration of the i.v. Q-Captisol dose.
The dosing regimen is as follows:
Period 1: Day 1: single oral dose of 1 mg tacrolimus
Period 2: Day 12: three times per day (Q 8 hrs) single oral dose of 100 mg Q-Captisol
Day 13: three times per day (Q 8 hrs) single oral dose of 100 mg Q-Captisol
Day 14: three times per day (Q 8 hrs) single oral dose of 100 mg Q-Captisol, with a single oral dose of 1 mg tacrolimus following the first dose of Q-Captisol.
Period 3: Day 25: single IV infusion of 100 mg Q-Captisol followed by a single oral dose of 1 mg tacrolimus.
In Period 1, blood samples for determination of tacrolimus pharmacokinetics are obtained at 0 min (pre-dose), then at 0.25, 0.5, 1, 2, 4, 8, 12, 24, 48, and 72 hr. Similar time periods are used to obtain tacrolimus blood sampled in Periods 2 and 3. Blood samples (0.4 ml) are withdrawn into K2-EDTA tubes from either an indwelling cannula or via venipuncture, then processed to yield plasma. Plasma samples are transferred to fresh tubes and frozen prior to shipment to the analytical laboratory.
The tacrolimus concentrations in plasma are determined using validated assay methods via an LC/MS/MS analytical technique. Major pharmacokinetic parameters, including area under the concentration versus time curve from time zero to the time of last measurable concentration (AUCt), area under the concentration versus time curve from time zero to infinite time (AUCinf), maximum observed concentration (Cmax), time to reach maximum observed blood or plasma concentration (Tmax), apparent terminal elimination rate constant (Kcl), clearance (CL), and half-life (T1/2), are determined from the plasma concentration data. Samples are analysed from all 15 subjects; one subject is a clear outlier and is excluded from the final analysis (N=14 subjects per dose regimen).

[8] = 5 rats, Prograf 0.5 mg/kg i.p. once daily from Day 1 + Vehicle 1 from Day 11
[9] = rats, Prograf 0.5 mg/kg i.p. + Vehicle 1
[10] = rats, Prograf 0.5 mg/kg i.p. once daily from Day 1 + Vehicle 1 from Day 11
[11] = Q-Captisol Dose 0 mg/kg i.p. 30 min before
[12] = Q-Captisol Dose 25 mg/kg i.p. 30 min before
[13] = Q-Captisol Dose 150 mg/kg i.p. 30 min before
[14] = Q-Captisol Dose 300 mg/kg i.p. 30 min before
[15] = Period 1: single oral dose 1 mg tacrolimus alone
[16] = Period 2: 1 mg oral tacrolimus + Q-Captisol po 100 mg three times per day Days 12-14
[17] = male, plasma, Period 1: single oral dose 1 mg tacrolimus alone
[18] = male, plasma, Period 2: 1 mg oral tacrolimus + Q-Captisol po 100 mg three times per day Days 12-14
[19] = male, plasma, Period 3: 1 mg oral tacrolimus after single IV infusion of 100 mg Q-Captisol

SMILES: O=c1c(O)c(-c2ccc(O)c(O)c2)oc2cc(O)cc(O)c12 [quercetin]
stability without precipitation [1]: stable for more than two weeks without precipitation
serum half-life [2]: 19 to 25 h
stability in aqueous solution as a function of pH [3]: stable below pH 3; also recorded: degradation of quercetin above pH 5 became apparent

fisetin concentration of the solution [4]: approximately 9.47 mg/ml
SMILES: O=c1c(O)c(-c2ccc(O)c(O)c2)oc2cc(O)ccc12 [fisetin]

Blood glucose Day 1, Mean [5, 8]: 1.27 g/L
Blood glucose Day 10, Mean [5, 8]: 1.49 g/L
Blood glucose Day 15, Mean [5, 8]: 2.54 g/L
Blood glucose Day 20, Mean [5, 8]: 2.93 g/L
Blood glucose Day 25, Mean [5, 8]: 2.55 g/L
Blood glucose, Mean change from Day 1, Day 10 [5, 9]: +0.22 g/l
Blood glucose, Mean change from Day 1, Day 15 [5, 9]: +1.27 g/l
Blood glucose, Mean change from Day 1, Day 20 [5, 9]: +1.66 g/l
Blood glucose, Mean change from Day 1, Day 25 [5, 9]: +1.28 g/l
Blood glucose, Mean change from all vehicle control, Day 1 [5, 9]: -0.10 g/L
Blood glucose, Mean change from all vehicle control, Day 10 [5, 9]: +0.23 g/l
Blood glucose, Mean change from all vehicle control, Day 15 [5, 9]: +1.27 g/l
Blood glucose, Mean change from all vehicle control, Day 20 [5, 9]: +1.81 g/l
Blood glucose, Mean change from all vehicle control, Day 25 [5, 9]: +1.38 g/l
AUC [6, 11]: 645 ng·h/mL
Cmax [6, 11]: 418 ng/mL
Vd [6, 11]: 18.6 L/kg
clearance [6, 11]: 22.9 mL/min/kg
half-life [6, 11]: 9.4 h
AUC [6, 12]: 635 ng·h/mL
Cmax [6, 12]: 426 ng/mL
Vd [6, 12]: 16 L/kg
clearance [6, 12]: 23.3 mL/min/kg
half-life [6, 12]: 7.9 h
AUC [6, 13]: 980 ng·h/mL
Cmax [6, 13]: 781 ng/mL
Vd [6, 13]: 10.9 L/kg
clearance [6, 13]: 15.5 mL/min/kg
half-life [6, 13]: 8.1 h
AUC [6, 14]: 1240 ng·h/mL
Cmax [6, 14]: 877 ng/mL
Vd [6, 14]: 8.2 L/kg
clearance [6, 14]: 12.2 mL/min/kg
half-life [6, 14]: 7.7 h
Tmax [6, 13]: 4.98 min
CL [7, 15]: 4.75 mL/min/kg
Vd [7, 15]: 8.5 L/kg
CL [7, 16]: 3.53 mL/min/kg
Vd [7, 16]: 8.4 L/kg
AUC [7, 17]: 48.8 ng·h/mL
Cmax [7, 17]: 5.8 ng/mL
Tmax [7, 17]: 1.56 h
half-life [7, 17]: 20.8 h
AUC [7, 18]: 65.7 ng·h/mL
Cmax [7, 18]: 6.5 ng/mL
Tmax [7, 18]: 1.28 h
half-life [7, 18]: 27.7 h
AUC [7, 19]: 56.3 ng·h/mL
Cmax [7, 19]: 6.4 ng/mL
Tmax [7, 19]: 1.55 h
clearance [7, 19]: 4.08 mL/min/kg
half-life [7, 19]: 19.9 h
Vd ([7]; male, plasma, Period 3: 1 mg oral tacrolimus after single IV infusion of 100 mg Q-Captisol, read-out: Vd): 7.1 L/kg
SMILES: C=CC[C@@H]1/C=C(\C)C[C@H](C)C[C@H](OC)[C@H]2O[C@@](O)(C(=O)C(=O)N3CCCC[C@H]3C(=O)O[C@H](/C(C)=C/[C@@H]3CC[C@@H](O)[C@H](OC)C3)[C@H](C)[C@@H](O)CC1=O)[C@H](C)C[C@@H]2OC [tacrolimus]
Blood glucose Day 1, individual rats [5, 10]: 1.16 g/l (2×) and 1.34 g/l and 1.22 g/l and 1.47 g/l
Blood glucose Day 10, individual rats [5, 10]: 1.30 g/L and 1.39 g/L and 1.40 g/L and 1.09 g/L and 2.25 g/L
Blood glucose Day 15, individual rats [5, 10]: 3.72 g/L and 1.67 g/L and 2.31 g/L and 1.97 g/L and 3.02 g/L
Blood glucose Day 20, individual rats [5, 10]: 2.79 g/L and 3.70 g/L and 2.97 g/L and 2.41 g/L and 2.77 g/L
Blood glucose Day 25, individual rats [5, 10]: 0.97 g/L and 3.16 g/L and 1.69 g/L and 2.98 g/L and 3.96 g/L
